Measured values: patent US8952024B2, “Herbicidal pyrimidone derivatives” (E I du Pont de Nemours and Company, priority 2009, dated 2015)

Tests used:
Assay in all cases: Test B pre-/postemergence plant response
Format in all cases: in vivo
corn (Zea mays) = tested on: corn (Zea mays)
How it was run: (§1)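 Visually scored on a 0 to 100 scale after 13 to 15 days in greenhouse versus controls. Treatments were preemergence on seeded loam/sand soil and postemergence on 1- to 4-leaf plants.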

[1] = tested on: Surinam grass (Brachiaria decumbens)
How it was run: as §1

wild oat (Avena fatua) = tested on: wild oat (Avena fatua)
How it was run: as §1

[2] = tested on: ragweed (common ragweed, Ambrosia elatior)
How it was run: as §1

[3] = tested on: pigweed (Amaranthus retroflexus)
How it was run: as §1

[4] = tested on: yellow nutsedge (Cyperus esculentus)
How it was run: as §1

[5] = tested on: woolly cupgrass (Eriochloa villosa)
How it was run: as §1

[6] = tested on: wheat (Triticum aestivum)
How it was run: as §1

[7] = tested on: large crabgrass (Digitaria sanguinalis)
How it was run: as §1

[8] = tested on: goosegrass (Eleusine indica)
How it was run: as §1

soybean (Glycine max) = tested on: soybean (Glycine max)
How it was run: as §1

[9] = tested on: blackgrass (Alopecurus myosuroides)
How it was run: as §1

[10] = tested on: lambsquarters (Chenopodium album)
How it was run: as §1

[11] = tested on: downy bromegrass (Bromus tectorum)
How it was run: as §1

[12] = tested on: johnsongrass (Sorghum halepense)
How it was run: as §1

kochia (Kochia scoparia) = tested on: kochia (Kochia scoparia)
How it was run: as §1

[13] = tested on: velvetleaf (Abutilon theophrasti)
How it was run: as §1

[14] = tested on: Italian ryegrass (Lolium multiflorum)
How it was run: as §1

[15] = 250 g ai/ha, Preemergence, 0 to 100 scale
[16] = Postemergence, 31 g ai/ha, scale 0 to 100 (0 no effect, 100 complete control)
[17] = Postemergence, 62 g ai/ha, scale 0 (no effect) to 100 (complete control), 13 to 15 days
[18] = Postemergence, 125 g ai/ha, visual rating after 13 to 15 days, scale 0 (no effect) to 100 (complete control)
[19] = Postemergence, 250 g ai/ha, scale 0 to 100
[20] = Preemergence, 31 g ai/ha, scale 0 to 100 (0 no effect, 100 complete control)
[21] = Preemergence, 62 g ai/ha, scale 0 to 100, 0 no effect, 100 complete control
[22] = Preemergence, 125 g ai/ha, 0 to 100 scale

## 5-[(2-hydroxy-6-oxo-1-cyclohexen-1-yl)carbonyl]-3-(2-methoxyethyl)-2-(3-thienyl)-4(3H)-pyrimidinone [Compound 97]
Corn (Zea mays); [15]
  Plant response rating, Corn: 0
Corn (Zea mays); [16]
  Plant response rating, Corn: 15
Corn (Zea mays); [17]
  Plant response rating, Corn: 15
Corn (Zea mays); [18]
  Plant response rating, Corn: 45
Corn (Zea mays); [19]
  Corn plant response rating: 65
Corn (Zea mays); [20]
  Plant response rating, Corn: 0
Corn (Zea mays); [21]
  Plant response rating, Corn: 0
Corn (Zea mays); [22]
  Corn plant response rating: 0
[1]; [15]
  Plant response rating, Surinam Grass: 80
[1]; [16]
  Plant response rating, Surinam Grass: 60
[1]; [17]
  Plant response rating, Surinam Grass: 70
[1]; [18]
  Plant response rating, Surinam Grass: 70
[1]; [19]
  Surinam Grass plant response rating: 80
[1]; [20]
  Plant response rating, Surinam Grass: 0
[1]; [21]
  Plant response rating, Surinam Grass: 10
[1]; [22]
  Surinam Grass plant response rating: 15
Wild oat (Avena fatua); [15]
  Plant response rating, Oat, Wild: 10
Wild oat (Avena fatua); [16]
  Plant response rating, Oat, Wild: 0
Wild oat (Avena fatua); [17]
  Plant response rating, Oat, Wild: 5
Wild oat (Avena fatua); [18]
  Plant response rating, Oat, Wild: 20
Wild oat (Avena fatua); [19]
  Oat, Wild plant response rating: 40
Wild oat (Avena fatua); [20]
  Plant response rating, Oat, Wild: 0
Wild oat (Avena fatua); [21]
  Plant response rating, Oat, Wild: 0
Wild oat (Avena fatua); [22]
  Oat, Wild plant response rating: 0
[2]; [15]
  Plant response rating, Ragweed: 100
[2]; [16]
  Plant response rating, Ragweed: 75
[2]; [17]
  Plant response rating, Ragweed: 80
[2]; [18]
  Plant response rating, Ragweed: 90
[2]; [19]
  Ragweed plant response rating: 98
[2]; [20]
  Plant response rating, Ragweed: 98
[2]; [21]
  Plant response rating, Ragweed: 100
[2]; [22]
  Ragweed plant response rating: 100
[3]; [15]
  Plant response rating, Pigweed: 100
[3]; [16]
  Plant response rating, Pigweed: 85
[3]; [17]
  Plant response rating, Pigweed: 85
[3]; [18]
  Plant response rating, Pigweed: 95
[3]; [19]
  Pigweed plant response rating: 100
[3]; [20]
  Plant response rating, Pigweed: 100
[3]; [21]
  Plant response rating, Pigweed: 100
[3]; [22]
  Pigweed plant response rating: 100
[4]; [15]
  Plant response rating, Nutsedge, Yellow: 75
[4]; [16]
  Plant response rating, Nutsedge, Yellow: 15
[4]; [17]
  Plant response rating, Nutsedge, Yellow: 55
[4]; [18]
  Plant response rating, Nutsedge, Yellow: 60
[4]; [19]
  Nutsedge, Yellow plant response rating: 75
[4]; [20]
  Plant response rating, Nutsedge, Yellow: 0
[4]; [21]
  Plant response rating, Nutsedge, Yellow: 0
[4]; [22]
  Nutsedge, Yellow plant response rating: 55
[5]; [15]
  Plant response rating, Cupgrass, Woolly: 40
[5]; [16]
  Plant response rating, Cupgrass, Woolly: 60
[5]; [17]
  Plant response rating, Cupgrass, Woolly: 70
[5]; [18]
  Plant response rating, Cupgrass, Woolly: 70
[5]; [19]
  Cupgrass, Woolly plant response rating: 75
[5]; [20]
  Plant response rating, Cupgrass, Woolly: 0
[5]; [21]
  Plant response rating, Cupgrass, Woolly: 10
[5]; [22]
  Cupgrass, Woolly plant response rating: 35
[6]; [15]
  Plant response rating, Wheat: 5
[6]; [16]
  Plant response rating, Wheat: 0
[6]; [17]
  Plant response rating, Wheat: 0
[6]; [18]
  Plant response rating, Wheat: 0
[6]; [19]
  Wheat plant response rating: 5
[6]; [20]
  Plant response rating, Wheat: 0
[6]; [22]
  Wheat plant response rating: 0
[7]; [15]
  Plant response rating, Crabgrass, Large: 95
[7]; [16]
  Plant response rating, Crabgrass, Large: 65
[7]; [17]
  Plant response rating, Crabgrass, Large: 70
[7]; [18]
  Plant response rating, Crabgrass, Large: 75
[7]; [19]
  Crabgrass, Large plant response rating: 80
[7]; [20]
  Plant response rating, Crabgrass, Large: 0
[7]; [21]
  Plant response rating, Crabgrass, Large: 0
[7]; [22]
  Crabgrass, Large plant response rating: 70
[8]; [15]
  Plant response rating, Goosegrass: 98
[8]; [16]
  Plant response rating, Goosegrass: 45
[8]; [17]
  Plant response rating, Goosegrass: 75
[8]; [18]
  Plant response rating, Goosegrass: 95
[8]; [19]
  Goosegrass plant response rating: 98
[8]; [20]
  Plant response rating, Goosegrass: 0
[8]; [22]
  Goosegrass plant response rating: 95
Soybean (Glycine max); [15]
  Plant response rating, Soybean: 75
Soybean (Glycine max); [16]
  Plant response rating, Soybean: 95
Soybean (Glycine max); [17]
  Plant response rating, Soybean: 95
Soybean (Glycine max); [18]
  Plant response rating, Soybean: 95
Soybean (Glycine max); [19]
  Soybean plant response rating: 98
Soybean (Glycine max); [20]
  Plant response rating, Soybean: 10
Soybean (Glycine max); [21]
  Plant response rating, Soybean: 60
Soybean (Glycine max); [22]
  Soybean plant response rating: 65
[9]; [15]
  Plant response rating, Blackgrass: 20
[9]; [16]
  Plant response rating, Blackgrass: 0
[9]; [17]
  Plant response rating, Blackgrass: 0
[9]; [18]
  Plant response rating, Blackgrass: 50
[9]; [19]
  Blackgrass plant response rating: 50
[9]; [20]
  Plant response rating, Blackgrass: 0
[9]; [21]
  Plant response rating, Blackgrass: 0
[9]; [22]
  Blackgrass plant response rating: 0
[10]; [15]
  Plant response rating, Lambsquarters: 100
[10]; [16]
  Plant response rating, Lambsquarters: 80
[10]; [17]
  Plant response rating, Lambsquarters: 80
[10]; [18]
  Plant response rating, Lambsquarters: 90
[10]; [19]
  Lambsquarters plant response rating: 95
[10]; [20]
  Plant response rating, Lambsquarters: 100
[10]; [21]
  Plant response rating, Lambsquarters: 100
[10]; [22]
  Lambsquarters plant response rating: 100
[11]; [15]
  Plant response rating, Bromegrass, Downy: 0
[11]; [16]
  Plant response rating, Bromegrass, Downy: 0
[11]; [17]
  Plant response rating, Bromegrass, Downy: 0
[11]; [18]
  Plant response rating, Bromegrass, Downy: 10
[11]; [19]
  Bromegrass, Downy plant response rating: 20
[11]; [20]
  Plant response rating, Bromegrass, Downy: 0
[11]; [21]
  Plant response rating, Bromegrass, Downy: 0
[11]; [22]
  Bromegrass, Downy plant response rating: 0
[12]; [15]
  Plant response rating, Johnsongrass: 75
[12]; [16]
  Plant response rating, Johnsongrass: 0
[12]; [17]
  Plant response rating, Johnsongrass: 55
[12]; [18]
  Plant response rating, Johnsongrass: 60
[12]; [19]
  Johnsongrass plant response rating: 75
[12]; [20]
  Plant response rating, Johnsongrass: 0
[12]; [21]
  Plant response rating, Johnsongrass: 10
[12]; [22]
  Johnsongrass plant response rating: 60
Kochia (Kochia scoparia); [15]
  Plant response rating, Kochia: 100
Kochia (Kochia scoparia); [16]
  Plant response rating, Kochia: 10
Kochia (Kochia scoparia); [17]
  Plant response rating, Kochia: 15
Kochia (Kochia scoparia); [18]
  Plant response rating, Kochia: 15
Kochia (Kochia scoparia); [19]
  Kochia plant response rating: 20
Kochia (Kochia scoparia); [20]
  Plant response rating, Kochia: 0
Kochia (Kochia scoparia); [21]
  Plant response rating, Kochia: 50
Kochia (Kochia scoparia); [22]
  Kochia plant response rating: 100
[13]; [15]
  Plant response rating, Velvetleaf: 100
[13]; [16]
  Plant response rating, Velvetleaf: 70
[13]; [17]
  Plant response rating, Velvetleaf: 70
[13]; [18]
  Plant response rating, Velvetleaf: 75
[13]; [19]
  Velvetleaf plant response rating: 85
[13]; [20]
  Plant response rating, Velvetleaf: 55
[13]; [21]
  Plant response rating, Velvetleaf: 100
[13]; [22]
  Velvetleaf plant response rating: 100
[14]; [15]
  Plant response rating, Ryegrass, Italian: 0
[14]; [16]
  Plant response rating, Ryegrass, Italian: 0
[14]; [17]
  Plant response rating, Ryegrass, Italian: 0
[14]; [18]
  Plant response rating, Ryegrass, Italian: 0
[14]; [19]
  Ryegrass, Italian plant response rating: 20
[14]; [20]
  Plant response rating, Ryegrass, Italian: 0
[14]; [21]
  Plant response rating, Ryegrass, Italian: 0
[14]; [22]
  Ryegrass, Italian plant response rating: 0
